Data taken from US7101906B2, “2,3,4-substituted cyclopentanones as therapeutic agents” (Allergan, Inc., priority 2004, dated 2006).

Assays:
Assay type in all cases: in vivo
[1] = tested on: Beagle dogs; assay: Ocular surface hyperemia in dogs; settings: dog, 0.03% topical; score 0.5 trace, 1 mild, 2 moderate, 3 severe
Protocol: Ocular surface hyperemia was visually assessed and scored according to a system typically used clinically.
Ocular surface hyperemia was evaluated at the same time points as intraocular pressure measurement. It should be noted that untreated dog eyes frequently have a pink/red tone. Thus, values of trace or even mild are not necessarily out of the normal range.

[2] = tested on: Beagle dogs; assay: Intraocular pressure in dogs (pneumatonometry); settings: dog, 0.03% topical 25 μL drop to one eye, 5 day study
Protocol: (§1) Intraocular pressure studies in dogs involved pneumatonometry performed in conscious, Beagle dogs of both sexes (10–15 kg). The animals remained conscious throughout the study and were gently restrained by hand. Drugs were administered topically to one eye as a 25 μL volume drop, the other eye received 25 μL vehicle (0.1% polysorbate 80:10 mM TRIS) as a control. Proparacaine (0.1%) was used for corneal anesthesia during tonometry.
Intraocular pressure was determined just before drug administration and at 2, 4 and 6 hr thereafter on each day of the 5 day study. Drug was administered immediately after the first IOP reading.

[3] = tested on: cynomolgus monkeys; assay: Intraocular pressure in cynomolgus monkeys; settings: monkey, 0.03% topical, single dose, 2-24 h
Protocol: as §1
An analogous procedure was carried out with cynomolgus monkeys with measurements at 2, 4, 6, and 24 hours after a single dose.

Row | Max hyperemia [1] | SMILES | Max. ΔIOP (mm Hg) [2] | Max. ΔIOP (mm Hg) [3]
1 | 1.0 | CC(C)OC(=O)CCC/C=C\C[C@H]1C(=O)CC[C@@H]1/C=C/C(O)CCc1sc2ccccc2c1Cl (single isomer, unassigned) [Compound 16c] | −4.8 mm Hg | −7.8 mm Hg
2 | 0.9 | CC(C)OC(=O)CCC/C=C\C[C@H]1C(=O)CC[C@@H]1/C=C/C(O)CCc1sc2ccccc2c1Cl (single isomer, unassigned) [Compound 16b] | −5.7 mm Hg | −3.4 mm Hg
